Measured values published in patent publication US10376520B2, “Methods for the treatment of cardiovascular disorders” (Galapagos NV, priority 2015, dated 2019).

System: RA patients
Assay: LDL determination, Study 1 (RA patients, add-on to MTX)
Type: in vivo, human
Protocol: Double-blind, placebo-controlled add on study in subjects with moderately to severely active RA who have an inadequate response to methotrexate (MTX) (oral or parenteral).
595 subjects randomized to one of 6 dose regimens of Compound 1 (dosed as a [Compound 1:HCl:3H2O]) (3 dose levels administered either once or twice daily) or placebo on top of each subject's stable dose of MTX.
Compound 1 (dosed as a [Compound 1:HCl:3H2O]) is dosed for twelve weeks once daily (q.d.) (50 mg, 100 mg or 200 mg) or twice daily (b.i.d.) (25 mg, 50 mg or 100 mg); or placebo.
At Week 12, the subjects on placebo who have not achieved 20% improvement in swollen joint count (SJC66) and tender joint count (TJC68) are re-randomized automatically to receive Compound 1 (dosed as a [Compound 1:HCl:3H2O]) either at 100 mg q.d. or 50 mg b.i.d. doses in a blinded fashion; subjects on 50 mg q.d. who have not achieved 20% improvement in SJC66 and TJC68 will be assigned to 100 mg q.d. and subjects on 25 mg b.i.d. that have not achieved a 20% improvement in SJC66 and TJC68 will be assigned to 50 mg b.i.d. Subjects who switch treatment at week 12 are handled as if they discontinued at week 12 for the purpose of statistical analysis, whereas subjects in the other groups will maintain their randomized treatment until Week 24.
The determination of [LDL]-cholesterol is made using an automated method taking advantage of the selective micellary solubilization of [LDL]-cholesterol by a nonionic detergent and the interaction of a sugar compound and lipoproteins (VLDL and chylomicrons).
When a detergent is included in the enzymatic method for cholesterol determination (cholesterol esterase, cholesterol oxidase coupling reaction), the relative reactivities of cholesterol in the lipoprotein fractions increase in this order: [HDL]<chylomicrons <VLDL <[LDL]. In the presence of Mg^2+, a sugar compound markedly reduces the enzymatic reaction of the cholesterol measurement in VLDL and chylomicrons. The combination of a sugar compound with detergent enables the selective determination of [LDL]-cholesterol in serum. (Friedewald et al., 1972; Rifai et al., 1992)
Homogeneous enzymatic colorimetric assay.
In the presence of peroxidase, the hydrogen peroxide generated reacts with 4-aminoantipyrine and Sodium N-(2-hydroxy-3-sulfopropyl)-3,5-dimethoxyaniline (HSDA) to form a purple-blue dye.
The color intensity of this dye is directly proportional to the cholesterol concentration and is measured photometrically.
Human serum and plasma samples [LDL] determination was done on a Roche/Hitachi Cobas c 701/702 system which automatically calculate the analyte concentration of each sample. Samples containing precipitates are centrifuged before performing the assay.

O=C(Nc1nc2cccc(-c3ccc(CN4CCS(=O)(=O)CC4)cc3)n2n1)C1CC1 [Compound 1, cyclopropanecarboxylic acid {5-[4-(1,1-dioxo-thiomorpholin-4-ylmethyl)-phenyl]-[1,2,4]triazolo[1,5-a]pyridin-2yl}-amide]
[LDL] Mean percentage CFB - 24 weeks results (25 mg b.i.d continued over 24 weeks, week 1): 2.79% | [LDL] Mean percentage CFB - 24 weeks results (25 mg b.i.d continued over 24 weeks, week 2): 3.88% | [LDL] Mean percentage CFB - 24 weeks results (25 mg b.i.d continued over 24 weeks, week 4): 4.15% | [LDL] Mean percentage CFB - 24 weeks results (25 mg b.i.d continued over 24 weeks, week 8): 3.83% | [LDL] Mean percentage CFB - 24 weeks results (25 mg b.i.d continued over 24 weeks, week 12): 7.21% | [LDL] Mean percentage CFB - 24 weeks results (25 mg b.i.d continued over 24 weeks, week 16): 6.54% | [LDL] Mean percentage CFB - 24 weeks results (25 mg b.i.d continued over 24 weeks, week 20): 7.42% | [LDL] Mean percentage CFB - 24 weeks results (25 mg b.i.d continued over 24 weeks, week 24): 8.14% | [LDL] Mean percentage CFB - 24 weeks results (50 mg b.i.d. continued over 24 weeks, week 1): 4.19% | [LDL] Mean percentage CFB - 24 weeks results (50 mg b.i.d. continued over 24 weeks, week 2): 3.43% | [LDL] Mean percentage CFB - 24 weeks results (50 mg b.i.d. continued over 24 weeks, week 4): 7.11% | [LDL] Mean percentage CFB - 24 weeks results (50 mg b.i.d. continued over 24 weeks, week 8): 4.75% | [LDL] Mean percentage CFB - 24 weeks results (50 mg b.i.d. continued over 24 weeks, week 12): 2.33% | [LDL] Mean percentage CFB - 24 weeks results (50 mg b.i.d. continued over 24 weeks, week 16): 5.78% | [LDL] Mean percentage CFB - 24 weeks results (50 mg b.i.d. continued over 24 weeks, week 20): 7.08% | [LDL] Mean percentage CFB - 24 weeks results (50 mg b.i.d. continued over 24 weeks, week 24): 8.29% | [LDL] Mean percentage CFB - 12 weeks results (50 mg q.d. (N = 82), week 1): 0% | [LDL] Mean percentage CFB - 12 weeks results (50 mg q.d. (N = 82), week 2): 1% | [LDL] Mean percentage CFB - 12 weeks results (50 mg q.d. (N = 82), week 4): 0% | [LDL] Mean percentage CFB - 12 weeks results (50 mg q.d. (N = 82), week 8): 3% | [LDL] Mean percentage CFB - 12 weeks results (50 mg q.d. (N = 82), week 12): 6% | [LDL] Mean percentage CFB - 24 weeks results (50 mg q.d. continued over 24 weeks, week 1): 0.26% | [LDL] Mean percentage CFB - 24 weeks results (50 mg q.d. continued over 24 weeks, week 2): −0.24% | [LDL] Mean percentage CFB - 24 weeks results (50 mg q.d. continued over 24 weeks, week 4): 0.35% | [LDL] Mean percentage CFB - 24 weeks results (50 mg q.d. continued over 24 weeks, week 8): 3.58% | [LDL] Mean percentage CFB - 24 weeks results (50 mg q.d. continued over 24 weeks, week 12): 6.67% | [LDL] Mean percentage CFB - 24 weeks results (50 mg q.d. continued over 24 weeks, week 16): 6.70% | [LDL] Mean percentage CFB - 24 weeks results (50 mg q.d. continued over 24 weeks, week 20): 6.29% | [LDL] Mean percentage CFB - 24 weeks results (50 mg q.d. continued over 24 weeks, week 24): 6.05% | [LDL] Mean percentage CFB - 24 weeks results (100 mg b.i.d. continued over 24 weeks, week 1): 8.14% | [LDL] Mean percentage CFB - 24 weeks results (100 mg b.i.d. continued over 24 weeks, week 4): 7.69% | [LDL] Mean percentage CFB - 24 weeks results (100 mg b.i.d. continued over 24 weeks, week 8): 13.14% | [LDL] Mean percentage CFB - 24 weeks results (100 mg b.i.d. continued over 24 weeks, week 12): 11.86% | [LDL] Mean percentage CFB - 24 weeks results (100 mg b.i.d. continued over 24 weeks, week 16): 9.44% | [LDL] Mean percentage CFB - 24 weeks results (100 mg b.i.d. continued over 24 weeks, week 20): 7.71% | [LDL] Mean percentage CFB - 24 weeks results (100 mg b.i.d. continued over 24 weeks, week 24): 12.88% | [LDL] Mean percentage CFB - 12 weeks results (100 mg q.d. (N = 85), week 1): 5% | [LDL] Mean percentage CFB - 12 weeks results (100 mg q.d. (N = 85), week 2): 2% | [LDL] Mean percentage CFB - 12 weeks results (100 mg q.d. (N = 85), week 4): 5% | [LDL] Mean percentage CFB - 12 weeks results (100 mg q.d. (N = 85), week 8): 4% | [LDL] Mean percentage CFB - 12 weeks results (100 mg q.d. (N = 85), week 12): 6% | [LDL] Mean percentage CFB - 24 weeks results (100 mg q.d. continued over 24 weeks, week 1): 5.08% | [LDL] Mean percentage CFB - 24 weeks results (100 mg q.d. continued over 24 weeks, week 2): 1.97% | [LDL] Mean percentage CFB - 24 weeks results (100 mg q.d. continued over 24 weeks, week 4): 5.31% | [LDL] Mean percentage CFB - 24 weeks results (100 mg q.d. continued over 24 weeks, week 8): 3.51% | [LDL] Mean percentage CFB - 24 weeks results (100 mg q.d. continued over 24 weeks, week 12): 5.69% | [LDL] Mean percentage CFB - 24 weeks results (100 mg q.d. continued over 24 weeks, week 16): 0.89% | [LDL] Mean percentage CFB - 24 weeks results (100 mg q.d. continued over 24 weeks, week 20): 1.19% | [LDL] Mean percentage CFB - 24 weeks results (100 mg q.d. continued over 24 weeks, week 24): 2.66%
